Test results published in US5300672A (priority 1992, dated 1994).
Like-named read-outs stand apart in the source and are kept apart here.

Key:
Pseudomonas fluorescens = experiment: Alternate Minimum Inhibitory Concentrations Test (Table 4), Ps.fl; assay type: cell-based; conditions: Table 4 alternate test, 250 ppm to 0.8 ppm in TSB, 72 hours, 30° C.; for MIC: Pseudomonas fluorescens, read-out: MIC Ps.fl
Method in brief: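 Broth microdilution MIC in TSB: compound (from acetone stock) serially diluted 1:1 from 250 ppm to 0.8 ppm, inoculated with diluted 24 h culture. After 3 days at 30 °C, the lowest concentration with no growth was recorded as MIC.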

[1] = system: Pseudoperonospora cubensis; experiment: whole plant or invertebrate; assay type: in vivo; conditions: for pest or weed control at 12 ppm / pest or weed control at 50 ppm / pest or weed control at 200 ppm: Pseudoperonospora cubensis, in Cucumis sativus, 168 h, read-out: % Control CDM; for % Control CDM: in vivo
Piricularia oryzae = experiment: whole plant or invertebrate; assay type: in vivo; conditions: for pest or weed control at 100 ppm: read-out: % Control RB, application rate 100 ppm; for % Control RB: in vivo
[2] = system: Pellicularia filamentosa (f. sp. sasiki); experiment: whole plant or invertebrate; assay type: in vivo; conditions: for pest or weed control at 100 ppm / pest or weed control at 200 ppm: 120 h, read-out: % Control RSB; for % Control RSB: in vivo
Phytophthora infestans = experiment: whole plant or invertebrate; assay type: in vivo; conditions: for pest or weed control at 100 ppm / pest or weed control at 200 ppm / pest or weed control at 25 ppm: Phytophthora infestans, in Solanum lycopersicum, 96 h; for pest or weed control at 25 ppm: read-out: % Control TLB, application rate 25 ppm
[3] = system: Puccinia recondita (f. sp. tritici Races PKB and PLD); experiment: whole plant or invertebrate; assay type: in vivo; conditions: for % Control WLR: in vivo
[4] = system: Erysiphe graminis (f. sp. tritici); experiment: whole plant or invertebrate; assay type: in vivo; conditions: for % Control WPM: in vivo
[5] = system: Puccinia graminis (f. sp. tritici Race 15B-2); experiment: whole plant or invertebrate; assay type: in vivo; conditions: for pest or weed control at 100 ppm / pest or weed control at 200 ppm: Puccinia graminis, 336 h, read-out: % Control WSR; for % Control WSR: application rate 200 ppm
[6] = Pyricularia oryzae, read-out: % Control RB
[7] = Puccinia recondita, 240 h, read-out: % Control WLR
[8] = Blumeria graminis, read-out: % Control WPM
[9] = Pyricularia oryzae, read-out: % Control RB, application rate 200 ppm
[10] = read-out: % Control TLB, application rate 100 ppm
[11] = read-out: % Control TLB, application rate 200 ppm

Molecule | MIC (Pseudomonas fluorescens) [µg/mL] | pest or weed control at 100 ppm [2] [%] | pest or weed control at 100 ppm (Phytophthora infestans; read-out: % Control TLB) [%] | pest or weed control at 100 ppm [3, 7] [%] | pest or weed control at 100 ppm [4, 8] [%] | pest or weed control at 50 ppm [1] [%] | pest or weed control at 200 ppm (Piricularia oryzae; [9]) [%] | pest or weed control at 200 ppm [5] [%] | pest or weed control at 100 ppm (Piricularia oryzae; Pyricularia oryzae) [%] | other results
CCCCCCCCNC(=O)/C=C\SC(=O)c1ccc(OC)cc1 [Compound 16, N-octyl-cis-3-[(4-methoxybenzoyl)thio]acrylamide] | > 250 | 0 | 90 | 75 | 0 | – | – | – | – | pest or weed control at 12 ppm [1]: 50%; pest or weed control at 25 ppm (Piricularia oryzae; [6]): 100%; pest or weed control at 100 ppm [5]: 75%
CCCCCCCCNC(=O)/C=C\SC(=O)Cc1ccccc1 [Compound 12, N-octyl-cis-3-(phenylacetylthio)acrylamide] | > 250 | 0 | 90 | 0 | 0 | 85 | 90 | 90 | – | –
CCCCCCCCNC(=O)/C=C\SC(=O)C1CCCCC1 [Compound 4, N-octyl-cis-3-(cyclohexanecarbonylthio)acrylamide] | > 250 | 0 | 90 | 0 | 0 | 99 | – | 50 | 80 | –
CCCCCCCCNC(=O)C=CSC(CO)COc1ccccc1 (stereo not drawn) [Compound 40, N-octyl-cis-3-[(1-hydroxy-3-phenoxy-2-propane)thio]acrylamide] | – | – | – | – | – | – | – | – | – | MIC Ps.fl (Pseudomonas fluorescens): > 250 Ppm; % Control CDM [1]: 85 % Control; % Control RB (Piricularia oryzae): 75 % Control; % Control RSB [2]: 0 % Control; % Control TLB (Phytophthora infestans; application rate 100 ppm): 95 % Control; % Control WLR [3]: 0 % Control; % Control WPM [4]: 50 % Control; % Control WSR [5]: 75 % Control
CCCCCCCCNC(=O)/C=C\SC(=O)CCCCl [Compound 29, N-octyl-cis-3-[(4-chlorobutanoyl)thio]acrylamide] | > 250 | 0 | 90 | 0 | 0 | 85 | 75 | 75 | – | –
CCCCCCCCNC(=O)/C=C\SC(=O)c1cccnc1Cl [Compound 6, N-octyl-cis-3-[3-(2-chloropyridine)carbonylthio]acrylamide] | > 250 | 0 | 90 | 0 | 0 | 85 | – | 90 | 50 | –
CCCCCCCCNC(=O)/C=C\SC(=O)C(C)(C)C [Compound 25, N-octyl-cis-3-[(1,1-dimethylpropanoyl)thio]acrylamide] | > 250 | 0 | – | 0 | 0 | 85 | – | – | 0 | pest or weed control at 100 ppm (Phytophthora infestans; [10]): 100%; pest or weed control at 100 ppm [5]: 90%
CCCCCCCCNC(=O)/C=C\SC(=O)/C=C/C(=O)OCC [Compound 57, N-octyl-cis-3-[(trans-3-ethoxycarbonyl-2-propenoyl)thio]acrylamide] | > 250 | – | – | – | – | 70 | 75 | 90 | – | pest or weed control at 200 ppm [2]: 0%; pest or weed control at 200 ppm (Phytophthora infestans; read-out: % Control TLB): 90%; pest or weed control at 200 ppm [3, 7]: 25%; pest or weed control at 12 ppm [4, 8]: 50%
CCCCCCCCNC(=O)/C=C\SC(=O)c1cccc(CCl)c1 [Compound 22, N-octyl-cis-3-[(3-(chloromethyl)benzoyl)thio]acrylamide] | > 250 | 0 | – | 0 | 0 | 99 | – | 75 | 0 | pest or weed control at 25 ppm (Phytophthora infestans): 95%
N-octyl-cis-3-[(2-butenoyl)thio]acrylamide [Compound 20] | – | – | – | – | – | – | – | – | – | MIC Ps.fl (Pseudomonas fluorescens): > 250 Ppm; % Control CDM [1]: 85 % Control; % Control RB (Piricularia oryzae): 50 % Control; % Control RSB [2]: 0 % Control; % Control TLB (Phytophthora infestans; application rate 6 ppm): 95 % Control; % Control WLR [3]: 0 % Control; % Control WPM [4]: 0 % Control; % Control WSR [5]: 75 % Control
CCCCCCCCNC(=O)/C=C\SC(=O)/C=C/c1ccc([N+](=O)[O-])cc1 [Compound 96, N-octyl-cis-3-[(trans-3-(4-nitrophenyl)propenoyl)thio]acrylamide] | > 250 | – | – | – | – | – | – | – | – | pest or weed control at 200 ppm [1]: 95%; pest or weed control at 200 ppm (Piricularia oryzae; [6]): 95%; pest or weed control at 200 ppm [2]: 50%; pest or weed control at 200 ppm (Phytophthora infestans; [11]): 0%; pest or weed control at 50 ppm [3, 7]: 0%; pest or weed control at 200 ppm [4, 8]: 75%; pest or weed control at 100 ppm [5]: 0%
CCCCCCCCNC(=O)/C=C\SC(=O)C(=O)OC [Compound 30, N-octyl-cis-3-(methyloxalylthio)acrylamide] | > 250 | 0 | 80 | – | 0 | 70 | – | 75 | 0 | pest or weed control at 25 ppm [3, 7]: 50%
CCCCCCCCNC(=O)/C=C\SC(=O)c1ccc([N+](=O)[O-])o1 [Compound 17, N-octyl-cis-3-[(5-nitro-2-furoyl)thio]acrylamide] | > 250 | 0 | 90 | 0 | 0 | 50 | – | 95 | 80 | –
CCCCCCCCNC(=O)/C=C\SC(=O)/C(=C/c1ccccc1)c1ccccc1 [Compound 82, N-octyl-cis-3-[(cis-2,3-diphenylpropenoyl)thio]acrylamide] | > 250 | – | – | – | – | – | 90 | – | – | pest or weed control at 200 ppm [1]: 0%; pest or weed control at 200 ppm [2]: 0%; pest or weed control at 200 ppm (Phytophthora infestans; [11]): 0%; pest or weed control at 50 ppm [3, 7]: 50%; pest or weed control at 200 ppm [4, 8]: 0%; pest or weed control at 100 ppm [5]: 50%
CCCCCCCCNC(=O)/C=C\SC(=O)c1cccnc1 [Compound 55, N-octyl-cis-3-[(3-pyridine)carbonylthio]acrylamide] | > 250 | 0 | – | 0 | 50 | – | 0 | 90 | – | pest or weed control at 12 ppm [1]: 70%; pest or weed control at 100 ppm (Phytophthora infestans; [10]): 95%
CCCCCCCCNC(=O)/C=C\SC(=O)CCc1ccccc1 [Compound 69, N-octyl-cis-3-[(3-phenylpropanoyl)thio]acrylamide] | > 250 | – | – | – | – | 85 | 80 | 75 | – | pest or weed control at 200 ppm [2]: 0%; pest or weed control at 200 ppm (Phytophthora infestans; [11]): 100%; % Control WLR [3]: 0 % Control; pest or weed control at 200 ppm [4, 8]: 0%
CCCCCCCCNC(=O)/C=C\SC(=O)c1cc(Cl)sc1Cl [Compound 18, N-octyl-cis-3-[(2,5-dichloro-3-thiophene)carbonylthio]acrylamide] | > 250 | 0 | – | 0 | 0 | 70 | – | 50 | 50 | pest or weed control at 25 ppm (Phytophthora infestans): 100%
CCCCCCCCNC(=O)/C=C\SC(=O)CCCc1ccccc1 [Compound 80, N-octyl-cis-3-[(4-phenylbutanoyl)thio]acrylamide] | > 250 | – | – | – | – | 85 | 50 | 75 | – | pest or weed control at 200 ppm [2]: 50%; pest or weed control at 200 ppm (Phytophthora infestans; [11]): 100%; pest or weed control at 200 ppm [3, 7]: 0%; pest or weed control at 200 ppm [4, 8]: 0%
CCCCCCCCNC(=O)/C=C\SC(=O)CCC(=O)OCC [Compound 52, N-octyl-cis-3-[(3-ethoxycarbonylpropanoyl)thio]acrylamide] | > 250 | 0 | 80 | 0 | 0 | 70 | 0 | 90 | – | –
